Values quoted from earlier work as cited in patent US5672583A, “Carboxy-peptidyl derivatives as antidegenerative active agents” (Merck & Co., Inc., priority 1995, dated 1997).

Assays:
[1] = biological target: T1, human rheumatoid synovial collagenase (Homo sapiens, UniProt P03956); details: Delaisse et al., Biochem. Biophys. Res. Commun. 133, 483-90 (1985)
T1 sequence (P03956 100-469): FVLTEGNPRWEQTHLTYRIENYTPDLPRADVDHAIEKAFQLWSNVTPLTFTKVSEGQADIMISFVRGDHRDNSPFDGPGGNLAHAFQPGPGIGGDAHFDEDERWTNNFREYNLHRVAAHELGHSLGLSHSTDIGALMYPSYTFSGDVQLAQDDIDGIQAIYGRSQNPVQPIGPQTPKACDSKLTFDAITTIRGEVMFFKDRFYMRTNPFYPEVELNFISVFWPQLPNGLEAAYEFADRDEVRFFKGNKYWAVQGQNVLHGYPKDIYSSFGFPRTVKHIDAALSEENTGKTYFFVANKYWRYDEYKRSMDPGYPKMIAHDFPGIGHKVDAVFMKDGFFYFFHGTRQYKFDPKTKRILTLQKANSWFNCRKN

[2] = biological target: rabbit bone proteoglycanase (Oryctolagus cuniculus, UniProt P28863); details: Delaisse et al., Biochem. Biophys. Res. Commun. 133, 483-90 (1985)
Sequence of rabbit bone proteoglycanase (P28863 101-478): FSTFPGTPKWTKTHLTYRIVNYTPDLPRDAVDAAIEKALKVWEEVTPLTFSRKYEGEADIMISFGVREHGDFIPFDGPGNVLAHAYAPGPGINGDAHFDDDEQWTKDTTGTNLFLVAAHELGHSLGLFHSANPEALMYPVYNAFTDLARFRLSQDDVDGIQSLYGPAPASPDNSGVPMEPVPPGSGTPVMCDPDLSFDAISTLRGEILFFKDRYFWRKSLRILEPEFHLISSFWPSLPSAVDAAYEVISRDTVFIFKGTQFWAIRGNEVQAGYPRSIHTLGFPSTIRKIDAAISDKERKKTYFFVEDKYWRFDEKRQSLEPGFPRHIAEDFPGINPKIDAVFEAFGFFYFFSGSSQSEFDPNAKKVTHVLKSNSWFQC

CNC(=O)[C@H](Cc1ccc(OC)cc1)NC(=O)[C@H](CC(C)C)NC(CCNC(=O)OCc1ccccc1)C(=O)O (stereo partly drawn) [N-[3-(benzyloxycarbonyl)amino-1-carboxy-n-propyl]-L-leucyl-O-methyl-L-tyrosine, N-methylamide]
IC50 [1]: 800 nM | IC50 [2]: 500 nM
